Measured values published in patent US10681909B2, “Herbicidal triazoles” (FMC Corporation, priority 2014, dated 2020).

Experiments:
crabgrass, large [1] = experiment: Test A postemergence; type: in vivo, Digitaria sanguinalis; conditions: 0 to 100 scale (0 no effect, 100 complete control), approx. 10 d
From the text: (§1) Seeds of plant species selected from barnyardgrass (Echinochloa crus-galli), crabgrass, large (large crabgrass, Digitaria sanguinalis), kochia (Kochia scoparia), ragweed (common ragweed, Ambrosia elatior), foxtail, giant (giant foxtail, Setaria faberii), morningglory (Ipomoea spp.), pigweed (Amaranthus retroflexus), velvetleaf (Abutilon theophrasti), ryegrass, Italian (Italian ryegrass, Lolium multiflorum), wheat (Triticum aestivum), and corn (Zea mays) were planted into a blend of loam soil and sand and treated preemergence with a directed soil spray using test chemicals formulated in a non-phytotoxic solvent mixture which included a surfactant. At the same time, plants selected from these crop and weed species and also blackgrass (Alopecurus myosuroides), and galium (catchweed bedstraw, Galium aparine), were planted in pots containing the same blend of loam soil and sand and treated with postemergence applications of test chemicals formulated in the same manner. Plants ranged in height from 2 to 10 cm and were in the one- to two-leaf stage for the postemergence treatment. […] A dash (-) response means no test result.

morningglory [2] = experiment: Test A preemergence; type: in vivo, Ipomoea spp.; conditions: 0 to 100 scale (0 no effect, 100 complete control)
From the text: as §1

corn [3] = experiment: Test A postemergence; type: in vivo, Zea mays; conditions: 0 to 100 scale (0 no effect, 100 complete control), approx. 10 d
Procedure, shortened: (§2)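 Pre- and postemergence spray tests in a loam soil–sand mixture: seeded soil received a directed spray, while established seedlings 2–10 cm high at the one- to two-leaf stage were treated over the top. Compounds were carried in non-phytotoxic solvent with surfactant.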

crabgrass, large [4] = experiment: Test A preemergence; type: in vivo, Digitaria sanguinalis; conditions: 0 to 100 scale (0 no effect, 100 complete control)
From the text: as §1

sedge, umbrella = experiment: Test B flooded paddy test; type: in vivo, Cyperus difformis; conditions: 250 g ai/ha, applied to paddy water at 2-leaf stage, visual rating after 13 to 15 d, scale 0 (no effect) to 100 (complete control)
From the text: (§3) At time of treatment, test pots were flooded to 3 cm above the soil surface, treated by application of test compounds directly to the paddy water, and then maintained at that water depth for the duration of the test. Treated plants and controls were maintained in a greenhouse for 13 to 15 d, after which time all species were compared to controls and visually evaluated. […] A dash (-) response means no test result.

wheat [5] = experiment: Test A preemergence; type: in vivo, Triticum aestivum; conditions: 0 to 100 scale (0 no effect, 100 complete control)
From the text: as §1

barnyardgrass [6] = experiment: Test A postemergence; type: in vivo, Echinochloa crus-galli; conditions: 0 to 100 scale (0 no effect, 100 complete control), approx. 10 d
Procedure, shortened: as §2

ducksalad = experiment: Test B flooded paddy test; type: in vivo, Heteranthera limosa; conditions: 250 g ai/ha, applied to paddy water at 2-leaf stage, visual rating after 13 to 15 d, scale 0 (no effect) to 100 (complete control)
From the text: as §3

foxtail, giant [7] = experiment: Test A postemergence; type: in vivo, Setaria faberii; conditions: 0 to 100 scale (0 no effect, 100 complete control), approx. 10 d
Procedure, shortened: as §2

corn [8] = experiment: Test A preemergence; type: in vivo, Zea mays; conditions: 0 to 100 scale (0 no effect, 100 complete control)
From the text: as §1

velvetleaf [9] = experiment: Test A preemergence; type: in vivo, Abutilon theophrasti; conditions: 0 to 100 scale (0 no effect, 100 complete control)
From the text: as §1

pigweed [10] = experiment: Test A preemergence; type: in vivo, Amaranthus retroflexus; conditions: 0 to 100 scale (0 no effect, 100 complete control)
Procedure, shortened: as §2

rice = experiment: Test B flooded paddy test; type: in vivo, Oryza sativa; conditions: 250 g ai/ha, applied to paddy water at 2-leaf stage, visual rating after 13 to 15 d, scale 0 (no effect) to 100 (complete control)
From the text: as §3

pigweed [11] = experiment: Test A postemergence; type: in vivo, Amaranthus retroflexus; conditions: 0 to 100 scale (0 no effect, 100 complete control), approx. 10 d
Procedure, shortened: as §2

barnyardgrass [12] = experiment: Test B flooded paddy test; type: in vivo, Echinochloa crus-galli; conditions: 250 g ai/ha, applied to paddy water at 2-leaf stage, visual rating after 13 to 15 d, scale 0 (no effect) to 100 (complete control)
From the text: as §3

wheat [13] = experiment: Test A postemergence; type: in vivo, Triticum aestivum; conditions: 0 to 100 scale (0 no effect, 100 complete control), approx. 10 d
Procedure, shortened: as §2

morningglory [14] = experiment: Test A postemergence; type: in vivo, Ipomoea spp.; conditions: 0 to 100 scale (0 no effect, 100 complete control), approx. 10 d
From the text: as §1

barnyardgrass [15] = experiment: Test A preemergence; type: in vivo, Echinochloa crus-galli; conditions: 0 to 100 scale (0 no effect, 100 complete control)
Procedure, shortened: as §2

foxtail, giant [16] = experiment: Test A preemergence; type: in vivo, Setaria faberii; conditions: 0 to 100 scale (0 no effect, 100 complete control)
Procedure, shortened: as §2

velvetleaf [17] = experiment: Test A postemergence; type: in vivo, Abutilon theophrasti; conditions: 0 to 100 scale (0 no effect, 100 complete control), approx. 10 d
From the text: as §1

| Compound | Plant response rating, Crabgrass, Large (crabgrass, large [1]; 125 g ai/ha) | Plant response rating, Crabgrass, Large (crabgrass, large [1]; 500 g ai/ha) | Plant response rating, Morningglory (morningglory [2]; 125 g ai/ha) | Plant response rating, Morningglory (morningglory [2]; 500 g ai/ha, approx. 10 d) | Plant response rating, Corn (corn [3]; 125 g ai/ha) | Plant response rating, Corn (corn [3]; 500 g ai/ha) | Plant response rating, Crabgrass, Large (crabgrass, large [4]; 125 g ai/ha) | Plant response rating, Crabgrass, Large (crabgrass, large [4]; 500 g ai/ha, approx. 10 d) | Plant response rating, Sedge, Umbrella, Flood (sedge, umbrella) | Plant response rating, Wheat (wheat [5]; 125 g ai/ha) | Plant response rating, Wheat (wheat [5]; 500 g ai/ha, approx. 10 d) | Plant response rating, Barnyardgrass (barnyardgrass [6]; 125 g ai/ha) | Plant response rating, Barnyardgrass (barnyardgrass [6]; 500 g ai/ha) | Plant response rating, Ducksalad, Flood (ducksalad) | Plant response rating, Foxtail, Giant (foxtail, giant [7]; 125 g ai/ha) | Plant response rating, Foxtail, Giant (foxtail, giant [7]; 500 g ai/ha) | Plant response rating, Corn (corn [8]; 125 g ai/ha) | Plant response rating, Corn (corn [8]; 500 g ai/ha, approx. 10 d) | Plant response rating, Velvetleaf (velvetleaf [9]; 125 g ai/ha) | Plant response rating, Velvetleaf (velvetleaf [9]; 500 g ai/ha, approx. 10 d) | also measured |
| --- | --- | --- | --- | --- | --- | --- | --- | --- | --- | --- | --- | --- | --- | --- | --- | --- | --- | --- | --- | --- | --- |
| CSc1nc(-c2ccc(F)cc2)nn1Cc1ccnc(C(F)(F)F)c1 [Compound 21] | 20 | 20 | 0 | 0 | 10 | 20 | 10 | 80 | 90 | 0 | 0 | 0 | 10 | 95 | 10 | 20 | 0 | 0 | 0 | 0 | Plant response rating, Pigweed (pigweed [10]; 125 g ai/ha): 10; Plant response rating, Pigweed (pigweed [10]; 500 g ai/ha, approx. 10 d): 90; Plant response rating, Rice, Flood (rice): 25; Plant response rating, Pigweed (pigweed [11]; 125 g ai/ha): 30; Plant response rating, Pigweed (pigweed [11]; 500 g ai/ha): 80; Plant response rating, Barnyardgrass, Flood (barnyardgrass [12]): 80; Plant response rating, Wheat (wheat [13]; 125 g ai/ha): 0; Plant response rating, Wheat (wheat [13]; 500 g ai/ha): 10; Plant response rating, Morningglory (morningglory [14]; 125 g ai/ha): 20; Plant response rating, Morningglory (morningglory [14]; 500 g ai/ha): 30; Plant response rating, Barnyardgrass (barnyardgrass [15]; 125 g ai/ha): 0; Plant response rating, Barnyardgrass (barnyardgrass [15]; 500 g ai/ha, approx. 10 d): 0; Plant response rating, Foxtail, Giant (foxtail, giant [16]; 125 g ai/ha): 0; Plant response rating, Foxtail, Giant (foxtail, giant [16]; 500 g ai/ha, approx. 10 d): 60; Plant response rating, Velvetleaf (velvetleaf [17]; 125 g ai/ha): 10; Plant response rating, Velvetleaf (velvetleaf [17]; 500 g ai/ha): 20 |
| CCCc1nc(-c2ccc(Cl)cc2)nn1Cc1ccnc(C(F)(F)F)c1 [Compound 22] | 100 | 100 | 10 | 70 | 20 | 50 | 100 | 100 | 0 | 10 | 20 | 40 | 60 | 0 | 70 | 80 | 10 | 20 | 20 | 40 | Plant response rating, Pigweed (pigweed [10]; 125 g ai/ha): 100; Plant response rating, Pigweed (pigweed [10]; 500 g ai/ha, approx. 10 d): 100; Plant response rating, Rice, Flood (rice): 0; Plant response rating, Pigweed (pigweed [11]; 125 g ai/ha): 100; Plant response rating, Pigweed (pigweed [11]; 500 g ai/ha): 100; Plant response rating, Barnyardgrass, Flood (barnyardgrass [12]): 0; Plant response rating, Wheat (wheat [13]; 125 g ai/ha): 30; Plant response rating, Wheat (wheat [13]; 500 g ai/ha): 40; Plant response rating, Morningglory (morningglory [14]; 125 g ai/ha): 50; Plant response rating, Morningglory (morningglory [14]; 500 g ai/ha): 80; Plant response rating, Barnyardgrass (barnyardgrass [15]; 125 g ai/ha): 40; Plant response rating, Barnyardgrass (barnyardgrass [15]; 500 g ai/ha, approx. 10 d): 70; Plant response rating, Foxtail, Giant (foxtail, giant [16]; 125 g ai/ha): 100; Plant response rating, Foxtail, Giant (foxtail, giant [16]; 500 g ai/ha, approx. 10 d): 100; Plant response rating, Velvetleaf (velvetleaf [17]; 125 g ai/ha): 60; Plant response rating, Velvetleaf (velvetleaf [17]; 500 g ai/ha): 100 |
